# From the supplement of paper PMC11208160
# Test: recombinant barcode read abundance after kanamycin selection (control-corrected) (log10(CPM+1)); higher = more efficient recombination; sequences stand for … in AGTGCAGAGAAAATCGGCCAGTTTTCTCTGCCTGCAGTCCGCATGCCGT…AGATTTATGCAGCGGACTGCCTTTCTCCCAAAGTGATAAACCGGACAGTATCATGGACCGGTTTTCCCGGTAATCCGTATTTGCAAGGTTGGTTTCACT; site = the 11-nt target
# Outline: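 Pooled oligos, each joining a target to an IS621 bridge RNA target-binding loop, were cloned and co-electroporated with a donor plasmid into E. coli. Selective plates carried chloramphenicol/ampicillin/kanamycin and 0.1 mM IPTG, while chloramphenicol/ampicillin LB agar served as control, with two replicates of each. Recombination efficiency rests on averaged, control-corrected counts per million of barcodes at recombinant junctions, shown as log10(CPM+1).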
# 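Note: IS621 recombinase and bridge RNA in Escherichia coli cells.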
row,Sequence,recombinant barcode read abundance (log10)
1,TCATATACTTGGGTTCTAACCTGTTGCCT (site ACATTTACTAG),0.238
2,TCATATACTTGGGTTCTAACCTGTTGCCT (site TCATATACTAG),0.553
3,TCATATCCTTGGGTTCTAACCTGTTGCCT (site CTCCGAACTCT),0.00468
4,TCATATCCTTGGGTTCTAACCTGTTGCCT (site TCATATCCTAG),0.167
5,TCATCCGCTTGGGTTCTAACCTGTTGCCT (site CCATCCACTAG),0.12
6,TCATCCGCTTGGGTTCTAACCTGTTGCCT (site TCATCCGCTAG),1.05
7,TCCAAACCTTGGGTTCTAACCTGTTGCAG (site TCCAAACCTCT),0.898
8,TCCAAACCTTGGGTTCTAACCTGTTGCAG (site TCCAACCCTCT),0.0235
9,TCCAAACCTTGGGTTCTAACCTGTTGCAG (site TCCAAGCCTCT),0.151
10,TCCAAACCTTGGGTTCTAACCTGTTGCAG (site TCCAATCCTCT),0.0156
11,TCCAGTCCTTGGGTTCTAACCTGTTGCTG (site AGCAGTCCTCA),0.0888
12,TCCAGTCCTTGGGTTCTAACCTGTTGCTG (site TCCAGTCCTCA),0.285
13,TCCCAAGCTTGGGTTCTAACCTGTTGCTA (site TCCAAAGCTTA),0.589
14,TCCCAAGCTTGGGTTCTAACCTGTTGCTA (site TCCCAAGCTTA),1.32
15,TCCCAAGCTTGGGTTCTAACCTGTTGCTA (site TCCGAAGCTTA),0.0505
16,TCCCAAGCTTGGGTTCTAACCTGTTGCTA (site TCCTAAGCTTA),0.141
17,TCCCGACCTTGGGTTCTAACCTGTTGCCT (site TCCCGAACTAG),0.135
18,TCCCGACCTTGGGTTCTAACCTGTTGCCT (site TCCCGACCTAG),1.72
19,TCCCGACCTTGGGTTCTAACCTGTTGCCT (site TCCCGAGCTAG),0.107
20,TCCCGACCTTGGGTTCTAACCTGTTGCCT (site TCCCGATCTAG),0.0793
21,TCCCGCCCTTGGGTTCTAACCTGTTGCCT (site GCACGCCCTAG),0.0125
22,TCCCGCCCTTGGGTTCTAACCTGTTGCCT (site TCCCGCCCTAG),0.464

row,Sequence,recombinant barcode read abundance (log10)
1,TCCCGGACTTGGGTTCTAACCTGTTGCCT (site TCACGGACTAG),0.212
2,TCCCGGACTTGGGTTCTAACCTGTTGCCT (site TCCCGGACTAG),0.892
3,TCCCGGACTTGGGTTCTAACCTGTTGCCT (site TCGCGGACTAG),0
4,TCCCGGACTTGGGTTCTAACCTGTTGCCT (site TCTCGGACTAG),0.1
5,TCCGAAGCTTGGGTTCTAACCTGTTGCTA (site TCCAAAGCTTA),0.0181
6,TCCGAAGCTTGGGTTCTAACCTGTTGCTA (site TCCCAAGCTTA),0.264
7,TCCGAAGCTTGGGTTCTAACCTGTTGCTA (site TCCGAAGCTTA),0.29
8,TCCGAAGCTTGGGTTCTAACCTGTTGCTA (site TCCTAAGCTTA),0.0103
9,TCCGAGACTTGGGTTCTAACCTGTTGCCT (site TCCGAGACTAG),1.4
10,TCCGAGACTTGGGTTCTAACCTGTTGCCT (site TCCGAGACTCG),0.048
11,TCCGAGACTTGGGTTCTAACCTGTTGCCT (site TCCGAGACTGG),0.267
12,TCCGAGACTTGGGTTCTAACCTGTTGCCT (site TCCGAGACTTG),0.157
13,TCCGGAGCTTGGGTTCTAACCTGTTGCCG (site GTGAACCCTTT),0.0406
14,TCCGGAGCTTGGGTTCTAACCTGTTGCCG (site TCCGGAGCTCG),0.652
15,TCCGGTTCTTGGGTTCTAACCTGTTGCCT (site ACGGGTTCTAG),0.0897
16,TCCGGTTCTTGGGTTCTAACCTGTTGCCT (site TCCGGTTCTAG),0.965
17,TCCGTGGCTTGGGTTCTAACCTGTTGCCT (site TCCGTGACTAG),0.121
18,TCCGTGGCTTGGGTTCTAACCTGTTGCCT (site TCCGTGCCTAG),0.261
19,TCCGTGGCTTGGGTTCTAACCTGTTGCCT (site TCCGTGGCTAG),0.916
20,TCCGTGGCTTGGGTTCTAACCTGTTGCCT (site TCCGTGTCTAG),0.244
21,TCCGTGTCTTGGGTTCTAACCTGTTGCCT (site TCCGTGACTAG),0.0308
22,TCCGTGTCTTGGGTTCTAACCTGTTGCCT (site TCCGTGCCTAG),0.241

row,Sequence,recombinant barcode read abundance (log10)
1,TCCGTGTCTTGGGTTCTAACCTGTTGCCT (site TCCGTGGCTAG),0.0597
2,TCCGTGTCTTGGGTTCTAACCTGTTGCCT (site TCCGTGTCTAG),2.24
3,TCCTAGTCTTGGGTTCTAACCTGTTGCAG (site GGTCCTCCTTC),0.0984
4,TCCTAGTCTTGGGTTCTAACCTGTTGCAG (site TCCTAGTCTCT),0.392
5,TCCTATCCTTGGGTTCTAACCTGTTGCGT (site TCCCATCCTAC),0.9
6,TCCTATCCTTGGGTTCTAACCTGTTGCGT (site TCCTATCCTAC),0.623
7,TCCTGAGCTTGGGTTCTAACCTGTTGCTG (site TCCTGAGCTCA),0.405
8,TCCTGAGCTTGGGTTCTAACCTGTTGCTG (site TCCTTAGCTCG),0.0103
9,TCCTTCACTTGGGTTCTAACCTGTTGCCT (site TCCTTCACTAG),0.285
10,TCCTTCACTTGGGTTCTAACCTGTTGCCT (site TCGTTCGCTAG),0.0665
11,TCGAACTCTTGGGTTCTAACCTGTTGCTT (site TCGAACTCTAA),0.339
12,TCGAACTCTTGGGTTCTAACCTGTTGCTT (site TCGCGCTCTAA),0.0841
13,TCGAAGTCTTGGGTTCTAACCTGTTGCTA (site AGATCTCCTAC),0.0769
14,TCGAAGTCTTGGGTTCTAACCTGTTGCTA (site TCGAAGTCTTA),0.272
15,TCGAGGCCTTGGGTTCTAACCTGTTGCTA (site CATCCATCTAT),0.162
16,TCGAGGCCTTGGGTTCTAACCTGTTGCTA (site TCGAGGCCTTA),0.0602
17,TCGAGTCCTTGGGTTCTAACCTGTTGCGG (site TCGAGTCCTCC),1.08
18,TCGAGTCCTTGGGTTCTAACCTGTTGCGG (site TTGAGGCCTCC),0
19,TCGAGTGCTTGGGTTCTAACCTGTTGCAG (site CTACTATCTAC),0.0294
20,TCGAGTGCTTGGGTTCTAACCTGTTGCAG (site TCGAGTGCTCT),0.263
21,TCGATCCCTTGGGTTCTAACCTGTTGCCT (site TCAATCCCTAG),0.194
22,TCGATCCCTTGGGTTCTAACCTGTTGCCT (site TCCATCCCTAG),0.144

row,Sequence,recombinant barcode read abundance (log10)
1,TCGATCCCTTGGGTTCTAACCTGTTGCCT (site TCGATCCCTAG),0.577
2,TCGATCCCTTGGGTTCTAACCTGTTGCCT (site TCTATCCCTAG),0.0661
3,TCGATTACTTGGGTTCTAACCTGTTGCCT (site TCGATCACTAG),0.269
4,TCGATTACTTGGGTTCTAACCTGTTGCCT (site TCGATTACTAG),0.123
5,TCGCACACTTGGGTTCTAACCTGTTGCCT (site ACGCACACTAG),0.276
6,TCGCACACTTGGGTTCTAACCTGTTGCCT (site CCGCACACTAG),0.324
7,TCGCACACTTGGGTTCTAACCTGTTGCCT (site GCGCACACTAG),0.814
8,TCGCACACTTGGGTTCTAACCTGTTGCCT (site TCGCACACTAG),0.622
9,TCGCAGACTTGGGTTCTAACCTGTTGCAC (site TCGCAGACTGT),0.0284
10,TCGCAGACTTGGGTTCTAACCTGTTGCAC (site TGGCCGACTGT),0.119
11,TCGCCTACTTGGGTTCTAACCTGTTGCCG (site TCCCCGACTCG),0.255
12,TCGCCTACTTGGGTTCTAACCTGTTGCCG (site TCGCCTACTCG),0.19
13,TCGCGCTCTTGGGTTCTAACCTGTTGCTT (site TCGAACTCTAA),0.233
14,TCGCGCTCTTGGGTTCTAACCTGTTGCTT (site TCGCGCTCTAA),0.419
15,TCGCTACCTTGGGTTCTAACCTGTTGCCT (site TCGCTACCTAG),0.109
16,TCGCTACCTTGGGTTCTAACCTGTTGCCT (site TGACTACCTAG),0.157
17,TCGGAATCTTGGGTTCTAACCTGTTGCCT (site GCGGAATCTAG),0
18,TCGGAATCTTGGGTTCTAACCTGTTGCCT (site TCGGAATCTAG),0.543
19,TCGGAGTCTTGGGTTCTAACCTGTTGCTT (site TCGGAGTCTAA),1.87
20,TCGGAGTCTTGGGTTCTAACCTGTTGCTT (site TCGGAGTCTAC),0.501
